Assay [1] deals with HCT116 cells. Briefly: IncuCyte Cytotox green real time cell death. In kind it is cell-based, human. Here is the method:
For real time quantification of cell death, the Incucyte Cytotox green reagent was used. […] The plasma membrane integrity is decreased in unhealthy cells, allowing entry of the IncuCyte Cytotox reagent, yielding a 100- to 1,000-fold increase in fluorescence upon binding to deoxyribonucleic acid (DNA) (at an excitation maximum of 491 nm and an emission maximum of 509 nm). The HCT116 cells were seeded at a density of 1,000 cell/well and allowed to grow overnight. […] The cells were then incubated in a IncuCyte Zoom live cell imaging apparatus and pictures were taken every 2 h for up to 50 h.The IncuCyte® integrated analysis software was used to quantify the fluorescent objects and minimize the background fluorescence (IncuCyte ZOOM version 2016A, Essen BioScience, Ann Arbor, MI 48108, USA).

For assay [2], the system named is HCT116 cells. Briefly: IncuCyte annexin V red real time apoptosis. The class given is cell-based, human. Here is the method: For real time quantification of apoptosis induction, the fluorescent Caspase 3/7 and Annexin V red reagents, with an excitation maximum of 500 and 593 nm and an emission maximum of 530 and 614 nm, respectively, were used. The HCT116 cells were seeded at a density of 1,000 cell/well and allowed to grow overnight. The next day, compound 15k at 0, 2, 4, and 8μM was prepared and added, directly followed by the caspase 3/7 reagent at final concentration of 5μM or annexin V red reagent in final dilution of 1: 200. The cells were then incubated in IncuCyte Zoom live cell imaging and pictures were taken every 2 h for up to 50 h and analyzed using the integrated software. The IncuCyte® Caspase-3/7 apoptosis assay reagent couples the activated caspase-3/7 recognition motif (DEVD) to NucView™ 488, a DNA intercalating dye to enable quantification of apoptosis over time. Caspase-3/7 assay reagent is non-perturbing to cell growth and morphology. When added to cell culture medium, this inert, non-fluorescent substrate crosses the cell membrane, where it is cleaved by activated caspase-3/7, resulting in the release of the DNA dye and green fluorescent staining of nuclear DNA.

Assay [3] relates to HCT116 Bak knockout (Bak–/–) cells. In words: MTT assay, knockout cells. The class given is cell-based. The following applies: Homo sapiens, HCT-116, not significantly different from WT. Here is the method: (§1) Colorectal cancer cell lines, including HCT116, LOVO, and S1, with varying drug sensitivity and invasiveness, were grown as adherent monolayer in culturing flasks. Normal epithelial cells lines (Chinese hamster ovarian: CHO, normal epithelial colon: CRL1459) were also grown. Both cancerous and normal cell lines were kindly obtained from the late Dr. Gary Kruh (University of Chicago, Illinois). In addition, CRC HCT116 Bax knockout (Bax–/–) cells were kindly provided by Dr. Bert Vogelstein (Johns Hopkins, Baltimore) (Zhang et al., [2000]), Bak knockout (Bak–/–) and Bax-Bak double knockout (Bax–/– and Bak–/–) cells were kindly provided by Richard Youle (NIH, […], MD) (Wang and Youle, [2012]). DMEM, with 4.5 g of glucose, was supplemented with 10% fetal bovine serum (FBS) and 1% penicillin/streptomycin and used for all cell lines. The cells were cultured in a humidified incubator containing 5% CO2 at 37°C. All of cells were checked and confirmed to be free of fungi and mycoplasma. Cells were obtained from frozen stocks and cell passaging (up to P4) was performed at 80% cell confluency by PBS and trypsin + 2.2 mM EDTA.
(§2) The 3-(4,5-dimethylthiazol-2-yl)-2,5-diphenyltetrazolium bromide (MTT) assay was used to determine the sensitivity of the different CRC cells to the novel silybin derivatives (Hussein et al., [2017]; Manivannan et al., [2017]). The cells were seeded at a density of 4,000–5,000 cells/well in 96 well plates and incubated with serial dilutions of the compounds (0, 0.1, 0.3, 1, 3, 10, 30, and 100 μM). The MTT dye (4 mg/ml) was added after 72 h of incubation and incubated with the cells for an additional 4 h at 37°C. […] A DTX 880 multimode detector (Beckman Coulter Life, Indianapolis IN, USA) was used to determine the absorbance readings at a wavelength of 570 nm. The IC50 values were determined based on 3 separate experiments, with each experiment done in triplicate. The selectivity of the compounds was determined by comparing their cytotoxicity for CRC to normal epithelial cell lines (CHO, and CRL1459).
For orientation: Tetrazolium assays rely on reduction of a dye to a coloured formazan, in cell work by metabolically active cells.

Assay [4] concerns HCT116 Bax knockout (Bax–/–) cells. Briefly: MTT assay, knockout cells. The class given is cell-based. The following applies: Homo sapiens, HCT-116, p < 0.05 vs WT. Here is the method:
as §1, §2

Assay [5] has as its system HCT116 Bax-Bak double knockout (DKO) cells. Briefly: MTT assay, knockout cells. The class given is cell-based. The following applies: Homo sapiens, HCT-116, p < 0.05 vs WT. Here is the method:
as §1, §2

The subject of assay [6] is β-catenin. In words: Western blot in HCT116 cells (nuclear). The conditions noted are these: 4 μM, p < 0.001 vs control. In kind it is cell-based, human. Here is the method: HCT116 cells were lysed to obtain cytoplasmic and nuclear protein fractions, according to the protocol used in previous publications (Alhadidi and Shah, [2017]). Briefly, the cells were seeded in and incubated with 15k for overnight at 4μM. The cells were washed using ice-cold PBS and scraped using a cell scraper and collected in 15ml tubes. The cells were centrifuged and the PBS was discarded and replaced with 400 μl of buffer A (10 mM HEPES, pH 7.9, 0.1 mM EDTA, 0.1 mM EGTA, 10 mM KCl, 1 mM dithiothreitol, and 0.5 mM phenylmethylsulfonyl fluoride) in each tube. The cells were allowed to swell under in the buffer for 15 min on ice. Subsequently, 0.1% Nonidet P-40 was added to each suspension for 1 min to disturb the plasma membrane. The nuclei were precipitated by centrifugation at 13,000 rpm for 1 min at 4°C. The cytoplasmic proteins were collected in the supernatant and stored at −80°C. Two hundred μl of Buffer B (20 mM HEPES, pH 7.9, 1 mM EDTA, 1 mM EGTA, 400 mM NaCl, 1 mM dithiothreitol, and 1 mM phenylmethylsulfonyl fluoride) was added to the pellets and left for 30 min on ice with periodic mixing. […] The bicinchoninic acid (BCA) quantification assay was used to determine the concentration of protein in the cell extracts. […] Finally, proteins were quantified using the image J software. Data were calculated as ratios to β-actin.
Background: A western blot detects proteins with antibodies after separation by electrophoresis.

The IC50 is the concentration at which inhibition is half-maximal. Higher therefore signals weaker potency. For the compound `O=C(/C=C/c1cccc(OCc2ccccc2)c1)c1ccc(O)cc1` [Compound 15k], the “time of significant difference in the number of dead cells” value in assay [1] (2 μM, vs vehicle) came out at 24 h. Further, the “time of significant increase in cell death” value in assay [1] (4 and 8 μM, vs control cells) came to 12 h. Besides, in assay [2] (2, 4 or 8 μM, vs control), the “annexin V red fluorescence over time” value was “significantly increased annexin V red fluorescence”. The “incubation time at which significant difference in annexin V fluorescence appeared” value in assay [2] (vehicle vs 15k) is recorded as 12 h. Besides, the IC50 is 3.6 µM in assay [3], 10.9 µM in assay [4] and 13.6 µM in assay [5]. In addition, the “nuclear β-catenin full-length protein (p1 and p2)” value in assay [6] is listed as “induced the cleavage of the full-length protein”.

(Values after article PMC5974752, “Bax/Tubulin/Epithelial-Mesenchymal Pathways Determine the Efficacy of Silybin Analog HM015k in Colorectal Cancer Cell Growth and Metastasis” (Frontiers in Pharmacology, 2018).)
